This passage reports EC50 and Ki results from patent publication EP2114875B1, “SUBSTITUTED ARYLCYLOPENTENES AS THERAPEUTIC AGENTS” (ALLERGAN, INC., priority 2007, dated 2008).

The target of experiment [1] is T1, hEP2 (Homo sapiens, UniProt P43116). In words: hEP2 cAMP assay. Format: cell-based. The text has this:
(§1) United States Patent Application Serial No. 11/553,143, filed on October 26, 2006, describes the methods used to obtain the in vitro data in the table below.

Experiment [2] has as its target T1, hEP2. Kind of experiment: hEP2 binding. The note with it: read-out: hEP2 Kl.
From the text: as §1

The target of experiment [3] is T1, hEP2. Kind of experiment: hEP2 flipr assay. Format: cell-based.
From the text: as §1

Experiment [4] has as its target T2, hEP4 (Homo sapiens, UniProt P35408). In words: hEP4 flipr assay. It is filed as cell-based.
From the text: as §1

Experiment [5] concerns the target T2, hEP4. In words: hEP4 binding.
From the text: as §1

T1 sequence (P43116 whole entry): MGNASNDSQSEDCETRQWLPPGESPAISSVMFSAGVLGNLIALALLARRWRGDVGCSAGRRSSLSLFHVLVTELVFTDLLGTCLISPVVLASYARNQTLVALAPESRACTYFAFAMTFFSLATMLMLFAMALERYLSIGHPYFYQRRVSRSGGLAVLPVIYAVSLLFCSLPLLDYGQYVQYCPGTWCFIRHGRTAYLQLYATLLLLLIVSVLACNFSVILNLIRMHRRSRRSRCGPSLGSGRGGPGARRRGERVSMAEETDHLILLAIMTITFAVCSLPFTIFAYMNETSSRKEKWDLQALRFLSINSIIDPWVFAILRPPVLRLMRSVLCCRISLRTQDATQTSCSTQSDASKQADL
T2 sequence (P35408 whole entry): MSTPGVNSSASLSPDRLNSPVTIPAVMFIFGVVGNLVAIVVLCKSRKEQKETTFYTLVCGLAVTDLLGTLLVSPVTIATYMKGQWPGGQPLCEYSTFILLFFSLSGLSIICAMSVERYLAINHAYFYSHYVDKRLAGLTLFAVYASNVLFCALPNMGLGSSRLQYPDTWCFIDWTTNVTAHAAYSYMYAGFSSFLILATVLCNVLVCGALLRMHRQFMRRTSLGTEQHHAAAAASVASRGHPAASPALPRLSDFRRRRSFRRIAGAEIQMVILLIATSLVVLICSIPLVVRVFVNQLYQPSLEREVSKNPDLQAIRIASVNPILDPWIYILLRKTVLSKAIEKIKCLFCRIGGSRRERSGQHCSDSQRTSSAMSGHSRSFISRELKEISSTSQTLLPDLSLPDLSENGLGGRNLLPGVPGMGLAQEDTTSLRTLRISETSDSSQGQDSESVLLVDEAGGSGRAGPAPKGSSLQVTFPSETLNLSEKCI

For the compound `O=C(O)c1ccc(CCCC2=CC[C@@H](O)[C@@H]2COc2cc(Cl)cc(Cl)c2)s1` [Example 1, 5-{3[(4R,5S)-5-(3,5-Dichloro-phenoxymethyl)-4-hydroxy-cyclopent·1-enyl]-propyl}-thiophene-2-carboxylic acid], the values for the EC50 in experiment [1], in experiment [3] and in experiment [4] were 4.8 nM, 424 nM and more than 10000 nM, respectively. The Ki amounted to 81 nM in experiment [2] and 1580 nM in experiment [5].

What is called EC50 is the concentration that produces a half-maximal response. Low values mean greater potency, high ones weaker potency.
